Laboratory results from patent US10005720B2, “Compounds useful for the treatment of metabolic disorders and synthesis of the same” (NORTH CAROLINA CENTRAL UNIVERSITY, priority 2013, dated 2018).
Entries after “also recorded” stand apart in the source; their conditions may differ.

What was measured:
FGF21 = FGF21 expression in liver of treated C57-DIO mice (Western blot, qPCR, microarray); assay type: in vivo, mouse
From the text: (§1) The expression and proteomic studies were implemented with particular interest in lipid/energy metabolism pathways.

CAR3 = CAR3 level in liver of treated mice (Western blot, 2D-DiGE); assay type: in vivo, mouse
From the text: as §1

[1] = system: C57-diet induced obesity (DIO) mouse model; test: Histological scoring of hepatic steatosis in the C57-DIO mouse model; assay type: in vivo; conditions: C57-DIO mice; for fatty liver phenotype / hepatic steatosis by liver histology (H&E): once-daily IP injection for 12 days, 10 mg/kg body weight
From the text: The C57-diet induced obesity (DIO) mouse model was used in this study as a disease model for fatty liver disease and hepatic insulin resistance (FIG. 4). It was observed that eighty percent of the C57-DIO animals develop the fatty liver phenotype at 20-weeks, which highly correlates with insulin resistance penetrance and poor glycemic control. […] In humans, progressive accumulation of hepatic triglycerides is associated with metabolic syndrome/T2D and leads to impairment of insulin action in the liver. The two guiding phenotypic indicators of test compound efficacy in earlier studies were: histological scoring of hepatic steatosis, and intraperitoneal (IP) glucose tolerance.
Singly housed mice raised on a 60%-fat diet (20-week old males purchased from Sax labs) with extensive fatty liver were treated with the test compound for 12 days via daily intraperitoneal injection (IP). […] In addition, coats of treated animals were drier (FIG. 4B vs. C), consistent with reduction in triglycerides (also observed in the DGAT1 mouse knockout with dry coat).
During initial animal screening, we developed a quantitative histomorphometry platform software using components of the open-source CellProfiler software for automatically quantifying/scoring liver lipid content through lipid droplet detection in entire liver sections. In brief, entire H&E liver slides are scanned at 400× total magnification using an Aperio ScanScope slide scanner. For automated lipid phenotyping, we 1) detect entire pieces of tissue, 2) identify individual lipid droplets based on size and shape and, 3) measure mean droplet size and droplet density per […]. This automated quantitation of liver lipid phenotype, supervised and verified by a trained veterinary pathologist (PI Yi), offers an unbiased and simple method for comparing compound effects. Results from manual scoring of average degree of steatosis in cohorts are; Sham-90%, B127443-27% and are in good agreement with machine-aided scoring results as shown in FIG. 6.

[2] = system: C57-diet induced obesity mouse model; test: Intraperitoneal glucose tolerance testing (IP-GTT) in C57-DIO mice; assay type: in vivo
Protocol: Glucose tolerance testing (IP-GTT) was performed via an IP injection of a 10% glucose solution at […] body weight within a 10 mL/kg body weight volume. Blood glucose was monitored pre and post injection at 15-minute intervals for 60 minutes using a standard glucometer. IP-GTT was chosen over oral GTT to bypass gut hormone signaling (GLP-1) for a more direct assessment of hepatic insulin resistance. IPGTT was performed on animals both prior to and after the 12-day test compound administration period to glean both individual animal responses and cohort averaged responses.

[3] = system: genes involved in lipid/energy metabolism; test: Gene chip microarray analysis of sham and drug treated liver; assay type: in vivo, mouse; conditions: treated vs sham liver
From the text: The expression and proteomic studies were implemented with particular interest in lipid/energy metabolism pathways. […] We are also particularly interested in Car3, since this gene represents ˜30% of soluble protein in adipose tissue, goes up in adipocytes (˜2-fold) in response to high fat diet, but goes down in the liver dramatically in response to energetic starvation. Finally, Car3 is negatively regulated by insulin signaling and thus might reflect insulin sensitivity. FGF21 and Car3 are good biomarkers for liver function in response to metabolic changes.

[4] = drug treated at 10 mg/kg vs. vehicle
[5] = trials on large numbers of mice

O=C(Nc1ccc([N+](=O)[O-])cc1Cl)c1cc(Cl)ccc1O [Example B-127443, Niclosamide]
FGF21 expression in liver, Western blot (FGF21; [4]): stimulation | FGF21 expression (FGF21; [5]): increases | CAR3 in liver, Western blot (CAR3; [4]): significant reduction | CAR3 protein level in liver, comparative proteomics (2D-DiGE) (CAR3; livers of treated mice): significantly lower levels of CAR3 protein | Car3 expression (CAR3; [5]): decreasing | fatty liver phenotype / hepatic steatosis by liver histology (H&E) ([1]; 10 mg/kg): dramatic therapeutic effects; also recorded: reversal of fatty phenotype | fatty liver phenotype / hepatic steatosis by liver histology (H&E) ([1]; listed as B127443, 10 mg/kg): efficacious; also recorded: robust responses | average degree of steatosis in cohorts, manual scoring ([1]; Sham 90%): 27% | glucose tolerance (IP-GTT), individual animals before and after treatment ([2]; 12-day treatment with 5 mg/kg, Animals 1,3): improved glucose tolerance | glucose tolerance (IP-GTT) ([2]; 12-day treatment, 10 mg/kg, cohort average (n=6) vs sham, 10 mg/kg): markedly improved; also recorded: marked improvement in glucose tolerance | expression of genes involved in lipid/energy metabolism (FGF21, Fitm1, Fitm2, CideC, Cyp7A1, chn) [3]: significantly changed the expression of many genes involved in lipid/energy metabolism
